Consider 20 compounds from patent publication US20070287699A1, “ANTIVIRAL AGENTS” (ViroBay, Inc., priority 2006, published 2007).

Molecules are shown by their SMILES. Bounds are passed on as bounds.

This test deals with HCV replicon RNA replication in human Huh7 hepatoma cells. Put plainly: HCV replicon assay (activity levels from either or both of HCV replicon assay 1, Huh7/Clone A RT-qPCR, and assay 2, Huh7 ET luc-ubi-neo/ET). The test is classed as cell-based, Hepatitis C virus (HCV). Conditions: Hepatitis C virus, Huh-7, either or both HCV replicon assays: Huh7/Clone A, 48 hours, 72 hours, Luc activity or RT-PCR, read-out: inhibit HCV replication at IC50 levels or estimated IC50 levels. From the text: The HCV replicon assay is a cell-culture system that mimics in vivo HCV replication and provides a system to study HCV replication in vitro. It was created by transfecting cloned viral RNA derived from a consensus HCV genomic sequence into human Huh7 hepatoma cells that are semi-permissive for viral RNA production (Lohmann V., Korner F., Koch J.-O., Herian U., Theilmann L. and Bartenschlager R. (1999). Replication of subgenomic Hepatitis C virus RNAs in a hepatoma cell line. Science 285, 110-113 and Blight K. J., Kolykhalov A. A. and Rice C. M. (2000). Efficient initiation of HCV RNA Replication in cell culture. Science 290, […]). These transfected cell lines contain a subgenomic HCV RNA genome that includes (1) the HCV 5′NTR fused to 12 amino acids of the capsid coding region, (2) the neomycin phosphotransferase gene (Neo) as a selectable marker, (3) the internal ribosome entry site (IRES) from encephalomyocarditis virus (EMCV) that directs translation of HCV non-structural proteins (variously NS2 or NS3 to NS5B), and (4) the 3′ NTR. Replicon-containing cells autonomously and persistently replicate HCV RNA that can be measured quantitatively by real-time qPCR. Therefore, the replicon system facilitates quantitative assessment of anti-viral activity by monitoring changes in HCV RNA replication in a cell-based assay.
HCV replicon-containing cells (Huh7/Clone A) were routinely maintained in Clone A growth medium (DMEM medium [Invitrogen], supplemented with 10% Fetal Bovine Serum, 1% Non Essential Amino Acids and 1 g/L G418). Test compounds were dissolved in dimethyl sulfoxide (DMSO) to make 200× stock solutions for all doses prior to treatment.
For the HCV replicon assay, Huh7/Clone A cells were trypsinized from culture flasks, seeded in 1 ml of Clone A growth medium without G418 at 4×10^4 cells per well in 24-well plates and incubated at 37° C. in a humidified CO2 (5%) incubator overnight. Following overnight incubation, compound solutions were added into wells in the same volume (5 μl of 200× compound stock per well) to give a final DMSO concentration of 0.5%. Three wells on each plate supplemented with 5 μl of DMSO served as untreated controls. For IC50 determinations, compounds were tested at 7 serial dilutions in triplicates from the starting stock solutions. The plates were incubated at 37° C. for 48 hours. After incubation, cells were harvested, transferred to 96-well plates, and subjected to total RNA extraction using the RNA Isolation Kit (RNeasy 96, Qiagen) according to the protocol described by the manufacture's RNeasy 96 Handbook (Qiagen).
Total RNA eluted in 130 μl of RNase-free dH2O was quantitated by the RiboGreen Assay according to the supplier's protocol (Molecular Probe). Briefly, 5 μl of RNA samples were aliquoted in duplicate to a 96-well black microplate and a 96-well TaqMan Optical plate. RNA samples in the black microplate were mixed with 95 μl of diluted RiboGreen:reagent (1:250 dilution in TE buffer) and sample fluorescence was measured using a fluorescence microplate reader at standard fluorescein wavelengths (excitation ˜480 nm, emission ˜520 nm). Ribosomal RNA (Molecular Probe) was used as standard.
TaqMan quantitative PCR (RT-qPCR) was used to quantitate the amount of HCV replicon RNA in each sample. The RT-qPCR reactions were performed in 25 μl on an ABI PRISM 7900 HT Sequence Detection System (Applied Biosystems). The reaction mixture contained 5 μl of total RNA (10-100 ng), 1× TaqMan Buffer A (Applied Biosystems), 5.5 mM MgCl2, 1.2 mM dNTP mix, 0.625 U of AmpliTaq Gold (Applied Biosystems), 5 U of MMLV reverse transcriptase (Promega), 5 U of rRNasin (Promega), 300 nM each of the forward and reverse primers, and 100 nM TaqMan MGB probe. Primers and probe were designed to hybridize to a portion of the neomycin resistance gene (neo) in the replicon and the sequences are as follows: forward primer 5′-GGCTACCTGCCCATTCGA-3′; reverse primer 5′-CCGGCTTCCATCCGAGTAC-3′; MGB probe 5′-CCACCAAGCGAAACA-3′. […]
Take `O=c1c(-c2noc(Cc3ccccc3)n2)cn(Cc2ccc(C(F)(F)F)cc2)c2cc(-n3ccnc3)c(F)cc12` [Compound 84, 3-(5-benzyl-[1,2,4]oxadiazol-3-yl)-6-fluoro-7-imidazol-1-yl-1-(4-trifluoromethyl-benzyl)-1H-quinolin-4-one]: the IC50 – broadly, the concentration needed to halve the response being measured – was less than 2 µM. As to `CN1CCN(c2cc3c(cc2F)c(=O)c(-c2noc(Cc4ccccc4)n2)cn3CC2CCCCC2)CC1` [Compound 9, 3-(5-benzyl-[1,2,4]oxadiazol-3-yl)-1-cyclohexylmethyl-6-fluoro-7-(4-methyl-piperazin-1-yl)-1H-quinolin-4-one], the IC50 is less than 2 µM.

Regarding `CN1CCN(c2cc3c(cc2F)c(=O)c(-c2noc(C4(c5ccccc5)CC4)n2)cn3Cc2ccc(C(F)(F)F)cc2F)CC1` [Compound 78, 6-fluoro-1-(2-fluoro-4-trifluoromethyl-benzyl)-7-(4-methyl-piperazin-1-yl)-3-[5-(1-phenyl-cyclopropyl)-[1,2,4]oxadiazol-3-yl]-1H-quinolin-4-one], the IC50 is less than 2 µM. Then `O=c1c(-c2noc(Cc3ccccc3)n2)cn(Cc2ccc(Cl)cc2)c2ccc(O)cc12` [Compound 12, 3-(5-benzyl-[1,2,4]oxadiazol-3-yl)-1-(4-chloro-benzyl)-6-hydroxy-1H-quinolin-4-one], with less than 10 µM; and `CN1CCN(c2cc3c(cc2F)c(=O)c(-c2noc(C(CC(N)=O)c4ccccc4)n2)cn3Cc2ccc(Cl)cc2)CC1` (centres unmarked) [Compound 60, 3-{3-[1-(4-chloro-benzyl)-6-fluoro-7-(4-methyl-piperazin-1-yl)-4-oxo-1,4-dihydro-quinolin-3-yl]-[1,2,4]oxadiazol-5-yl}-3-phenyl-propionamide], with greater than 10 µM; and `COc1cc2c(=O)c(-c3noc(Cc4ccc(C)cc4)n3)cn(Cc3ccc(Cl)cc3)c2cc1OC` [Compound 4, 1-(4-chloro-benzyl)-6,7-dimethoxy-3-[5-(4-methyl-benzyl)-[1,2,4]oxadiazol-3-yl]-1H-quinolin-4-one], with greater than 10 µM. Then `O=c1c(-c2noc(Cc3ccccc3)n2)cn(Cc2ccc(C(F)(F)F)cc2F)c2cc(N3CCCNCC3)c(F)cc12` [Compound 38, 3-(5-benzyl-[1,2,4]oxadiazol-3-yl)-7-[1,4]diazepan-1-yl-6-fluoro-1-(2-fluoro-4-trifluoromethyl-benzyl)-1H-quinolin-4-one], with less than 0.5 µM. As to `COc1ccc2c(c1)c(=O)c(-c1noc(Cc3ccccc3)n1)cn2Cc1ccc(Cl)cc1` [Compound 11, 3-(5-benzyl-[1,2,4]oxadiazol-3-yl)-1-(4-chloro-benzyl)-6-methoxy-1H-quinolin-4-one], the IC50 is greater than 10 µM. Then `CN1CCN(c2cc3c(cc2F)c(=O)c(-c2noc(C(CCCCNC(=O)OC(C)(C)C)c4ccccc4)n2)cn3Cc2ccc(Cl)cc2)CC1` (centres unmarked) [Compound 86, tert-butyl (5-{3-[1-(4-chloro-benzyl)-6-fluoro-7-(4-methyl-piperazin-1-yl)-4-oxo-1,4-dihydro-quinolin-3-yl]-[1,2,4]oxadiazol-5-yl}-5-phenyl-pentyl)-carbamate], with less than 10 µM; and `CC(C)(c1ccccc1)c1nc(-c2cn(Cc3ccc(C(F)(F)F)cc3)c3cc(N4CCNC(=O)C4)c(F)cc3c2=O)no1` [Compound 126, 6-fluoro-7-(3-oxopiperazin-1-yl)-3-(5-(2-phenylpropan-2-yl)-1,2,4-oxadiazol-3-yl)-1-(4-(trifluoromethyl)benzyl)quinolin-4(1H)-one], with less than 0.5 µM; and `CN1CCN(c2cc3c(cc2F)c(=O)c(-c2noc(CC4CCCC4)n2)cn3CC2CCCCC2)CC1` [Compound 15, 1-cyclohexylmethyl-3-(5-cyclopentylmethyl-[1,2,4]oxadiazol-3-yl)-6-fluoro-7-(4-methyl-piperazin-1-yl)-1H-quinolin-4-one], with less than 10 µM. Then `CN1CCN(c2cc3c(cc2F)c(=O)c(-c2noc(Cc4ccccc4)n2)cn3Cc2c(F)cccc2Cl)CC1` [Compound 41, 3-(5-benzyl-[1,2,4]oxadiazol-3-yl)-1-(2-chloro-6-fluoro-benzyl)-6-fluoro-7-(4-methyl-piperazin-1-yl)-1H-quinolin-4-one], with greater than 10 µM; and `CC(C)(c1ccc(F)cc1)c1noc(-c2cn(Cc3ccc(C(F)(F)F)cc3)c3cc(N4CCOCC4)c(F)cc3c2=O)n1` [Compound 173, 6-fluoro-3-(3-(2-(4-fluorophenyl)propan-2-yl)-1,2,4-oxadiazol-5-yl)-7-morpholino-1-(4-(trifluoromethyl)benzyl)quinolin-4(1H)-one], with greater than 10 µM.

Take `O=c1c(-c2noc(Cc3ccccc3)n2)cn(CC2CCCCC2)c2ccc(O)cc12` [Compound 24, 3-(5-benzyl-[1,2,4]oxadiazol-3-yl)-1-cyclohexylmethyl-6-hydroxy-1H-quinolin-4-one]: the IC50 is greater than 10 µM.

On to `CN1CCN(c2cc3c(cc2F)c(=O)c(-c2noc(C4(c5ccccc5)CC4)n2)cn3C2(c3ccc(C(F)(F)F)cc3)CC2)CC1` [Compound 90, 6-fluoro-7-(4-methyl-piperazin-1-yl)-3-[5-(1-phenyl-cyclopropyl)-[1,2,4]oxadiazol-3-yl]-1-[1-(4-trifluoromethyl-phenyl)-cyclopropyl]-1H-quinolin-4-one], for which the half-maximal inhibitory concentration (IC50) is greater than 10 µM. `CN1CCN(c2cc3c(cc2F)c(=O)c(-c2noc(Cc4ccc(F)cc4)n2)cn3C2(c3ccc(C(F)(F)F)cc3)CC2)CC1` [Compound 88b, 6-fluoro-3-[5-(4-fluoro-benzyl)-[1,2,4]oxadiazol-3-yl]-7-(4-methyl-piperazin-1-yl)-1-[1-(4-trifluoromethyl-phenyl)-cyclopropyl]-1H-quinolin-4-one]: the IC50 was less than 2 µM. The value for `COc1ccc(Cn2cc(-c3noc(C(C)(C)c4ccc(F)cc4)n3)c(=O)c3cc(F)c(N4CCOCC4)cc32)cc1` [Compound 130, 6-fluoro-3-(5-(2-(4-fluorophenyl)propan-2-yl)-1,2,4-oxadiazol-3-yl)-1-(4-methoxybenzyl)-7-morpholinoquinolin-4(1H)-one] was less than 2 µM; that for `NC(=O)CCCC(c1ccccc1)c1nc(-c2cn(Cc3ccc(C(F)(F)F)cc3F)c3ccccc3c2=O)no1` (centres unmarked) [Compound 99, 5-{3-[1-(2-fluoro-4-trifluoromethyl-benzyl)-4-oxo-1,4-dihydro-quinolin-3-yl]-[1,2,4]oxadiazol-5-yl}-5-phenyl-pentanoic acid amide] was greater than 10 µM; that for `CN(C)c1cc2c(cc1F)c(=O)c(-c1noc(C(C)(C)c3ccc(F)cc3)n1)cn2Cc1ccc(C(F)(F)F)cc1` [Compound 153, 7-(dimethylamino)-6-fluoro-3-(5-(2-(4-fluorophenyl)propan-2-yl)-1,2,4-oxadiazol-3-yl)-1-(4-(trifluoromethyl)benzyl)quinolin-4(1H)-one] was less than 2 µM. Then `N#CCCCC(c1ccccc1)c1nc(-c2cn(Cc3ccc(C(F)(F)F)cc3F)c3ccccc3c2=O)no1` (centres unmarked) [Compound 95, 5-{3-[1-(2-fluoro-4-trifluoromethyl-benzyl)-4-oxo-1,4-dihydro-quinolin-3-yl]-[1,2,4]oxadiazol-5-yl}-5-phenyl-pentanenitrile], with greater than 10 µM.
